ChEMBL document CHEMBL1201862, “PubChem BioAssay data set” (2004)
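Test compounds were applied to cells in 96-well plates for 48 hours at 5 doses. Abbreviation: GI50, concentration required for 50% inhibition of growth.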 The source made the active and inactive calls. Rule as the data show it: active = GI50 up to about 1.1 µM and inactive = higher.

What was measured:
Test in all cases: NCI anticancer screen, dose series, 48 h
BT-549 = tested on: BT-549
CCRF-CEM = tested on: CCRF-CEM
COLO 205 = tested on: COLO 205
EKVX = tested on: EKVX
HCT-15 = tested on: HCT-15
HOP-92 = tested on: HOP-92
KM12 = tested on: KM12
LOX IMVI = tested on: LOX IMVI
MDA-MB-435 = tested on: MDA-MB-435
NCI-H226 = tested on: NCI-H226
OVCAR-4 = tested on: OVCAR-4
OVCAR-5 = tested on: OVCAR-5
OVCAR-8 = tested on: OVCAR-8
SK-OV-3 = tested on: SK-OV-3
SN12C = tested on: SN12C
SNB-19 = tested on: SNB-19
SNB-75 = tested on: SNB-75
SR = tested on: SR
786-0 = tested on: 786-0

## COc1ccc(-c2cc(-c3ccccc3)n(C3OCC(OC(C)=O)C(OC(C)=O)C3OC(C)=O)c(=S)c2C#N)cc1 (stereo not given)
BT-549
  GI50: > 100 µM (inactive)
CCRF-CEM
  GI50: > 100 µM (inactive)
COLO 205
  GI50: > 100 µM (inactive)
EKVX
  GI50: > 100 µM (inactive)
HCT-15
  GI50: > 100 µM
HOP-92
  GI50: 16 µM (inactive)
KM12
  GI50: 85.3 µM (inactive)
LOX IMVI
  GI50: > 100 µM (inactive)
MDA-MB-435
  GI50: > 100 µM (inactive)
NCI-H226
  GI50: 20 µM (inactive)
OVCAR-4
  GI50: > 100 µM (inactive)
OVCAR-5
  GI50: 87.1 µM (inactive)
OVCAR-8
  GI50: > 100 µM (inactive)
SK-OV-3
  GI50: 66.1 µM (inactive)
SN12C
  GI50: > 100 µM (inactive)
SNB-19
  GI50: > 100 µM (inactive)
SNB-75
  GI50: > 100 µM (inactive)
SR
  GI50: > 100 µM (inactive)

## O=C1C(Cl)=CC2(C=C1Cl)CCNC1=C2C(=O)c2nc[nH]c2C1=O
786-0
  GI50: 41.3 µM (inactive)
BT-549
  GI50: 26.3 µM (inactive)
CCRF-CEM
  GI50: 30.8 µM (inactive)
COLO 205
  GI50: 22.9 µM (inactive)
EKVX
  GI50: 51.8 µM (inactive)
HCT-15
  GI50: 46 µM
HOP-92
  GI50: 42.4 µM (inactive)
KM12
  GI50: 43.4 µM (inactive)
LOX IMVI
  GI50: 20 µM (inactive)
MDA-MB-435
  GI50: 18.2 µM (inactive)
NCI-H226
  GI50: 75.2 µM (inactive)
OVCAR-4
  GI50: 58.7 µM (inactive)
OVCAR-5
  GI50: > 100 µM (inactive)
OVCAR-8
  GI50: 32.9 µM (inactive)
SK-OV-3
  GI50: > 100 µM (inactive)
SN12C
  GI50: 36.5 µM (inactive)
SNB-19
  GI50: 32.3 µM (inactive)
SNB-75
  GI50: 97.5 µM (inactive)
SR
  GI50: 2.12 µM (inactive)

## CN(C)/C=N/c1c2c(nc3ccccc13)CCCC2
786-0
  GI50: > 100 µM (inactive)
BT-549
  GI50: > 100 µM (inactive)
CCRF-CEM
  GI50: 44 µM (inactive)
COLO 205
  GI50: 70.8 µM (inactive)
EKVX
  GI50: > 100 µM (inactive)
HCT-15
  GI50: > 100 µM
HOP-92
  GI50: 33.1 µM (inactive)
LOX IMVI
  GI50: 91 µM (inactive)
MDA-MB-435
  GI50: > 100 µM (inactive)
NCI-H226
  GI50: 36 µM (inactive)
OVCAR-4
  GI50: 75.2 µM (inactive)
OVCAR-5
  GI50: > 100 µM (inactive)
OVCAR-8
  GI50: 50.1 µM (inactive)
SK-OV-3
  GI50: > 100 µM (inactive)
SN12C
  GI50: > 100 µM (inactive)
SNB-19
  GI50: > 100 µM (inactive)
SNB-75
  GI50: 93.8 µM (inactive)
SR
  GI50: 25.9 µM (inactive)

## CCOC(=O)NC(Nc1ccc(OC(F)(F)F)cc1)(C(F)(F)F)C(F)(F)F
786-0
  GI50: > 100 µM (inactive)
BT-549
  GI50: > 100 µM (inactive)
CCRF-CEM
  GI50: > 100 µM (inactive)
COLO 205
  GI50: > 100 µM (inactive)
EKVX
  GI50: > 100 µM (inactive)
HCT-15
  GI50: > 100 µM
HOP-92
  GI50: > 100 µM (inactive)
KM12
  GI50: > 100 µM (inactive)
LOX IMVI
  GI50: > 100 µM (inactive)
MDA-MB-435
  GI50: > 100 µM (inactive)
NCI-H226
  GI50: > 100 µM (inactive)
OVCAR-5
  GI50: > 100 µM (inactive)
OVCAR-8
  GI50: > 100 µM (inactive)
SK-OV-3
  GI50: > 100 µM (inactive)
SN12C
  GI50: > 100 µM (inactive)
SNB-19
  GI50: > 100 µM (inactive)
SNB-75
  GI50: > 100 µM (inactive)
SR
  GI50: > 100 µM (inactive)

## N#Cc1c(N)n(-c2nc3ccccc3s2)c(=O)c2cc([N+](=O)[O-])ccc12
786-0
  GI50: 21.7 µM (inactive)
BT-549
  GI50: 21.2 µM (inactive)
CCRF-CEM
  GI50: 0.0453 µM (active)
EKVX
  GI50: 23.3 µM (inactive)
HCT-15
  GI50: 4.04 µM
HOP-92
  GI50: 14.1 µM (inactive)
KM12
  GI50: 19.7 µM (inactive)
LOX IMVI
  GI50: 7.03 µM (inactive)
MDA-MB-435
  GI50: 25 µM (inactive)
NCI-H226
  GI50: 6.93 µM (inactive)
OVCAR-4
  GI50: 24.3 µM (inactive)
OVCAR-5
  GI50: 24.8 µM (inactive)
OVCAR-8
  GI50: 16.8 µM (inactive)
SK-OV-3
  GI50: 25.4 µM (inactive)
SN12C
  GI50: 23.1 µM (inactive)
SNB-19
  GI50: 17.7 µM (inactive)
SNB-75
  GI50: 14.9 µM (inactive)
SR
  GI50: 14.2 µM (inactive)

## CC(=O)Nc1ncc2c(n1)-c1ccccc1OC2c1ccccc1 (stereo not given)
786-0
  GI50: 12.4 µM (inactive)
BT-549
  GI50: 27.7 µM (inactive)
CCRF-CEM
  GI50: > 100 µM (inactive)
COLO 205
  GI50: > 100 µM (inactive)
EKVX
  GI50: 61 µM (inactive)
HCT-15
  GI50: > 100 µM
HOP-92
  GI50: 14.8 µM (inactive)
KM12
  GI50: > 100 µM (inactive)
LOX IMVI
  GI50: > 100 µM (inactive)
MDA-MB-435
  GI50: > 100 µM (inactive)
NCI-H226
  GI50: 20.5 µM (inactive)
OVCAR-4
  GI50: 18.5 µM (inactive)
OVCAR-5
  GI50: > 100 µM (inactive)
OVCAR-8
  GI50: 23.6 µM (inactive)
SK-OV-3
  GI50: 42.8 µM (inactive)
SN12C
  GI50: 87.9 µM (inactive)
SNB-19
  GI50: 20.8 µM (inactive)
SNB-75
  GI50: 14.1 µM (inactive)
SR
  GI50: > 100 µM (inactive)

## C=CCOc1ccc(C2(c3ccc(OCC=C)cc3)C(=O)Nc3ccccc32)cc1
786-0
  GI50: > 10 µM (inactive)
BT-549
  GI50: 9.31 µM (inactive)
CCRF-CEM
  GI50: > 10 µM (inactive)
COLO 205
  GI50: 7.19 µM (inactive)
EKVX
  GI50: > 10 µM (inactive)
HCT-15
  GI50: > 10 µM
HOP-92
  GI50: > 10 µM (inactive)
KM12
  GI50: > 10 µM (inactive)
LOX IMVI
  GI50: > 10 µM (inactive)
MDA-MB-435
  GI50: > 10 µM (inactive)
NCI-H226
  GI50: > 10 µM (inactive)
OVCAR-4
  GI50: 3.4 µM (inactive)
OVCAR-5
  GI50: > 10 µM (inactive)
OVCAR-8
  GI50: > 10 µM (inactive)
SK-OV-3
  GI50: > 10 µM (inactive)
SN12C
  GI50: > 10 µM (inactive)
SNB-19
  GI50: > 10 µM (inactive)
SNB-75
  GI50: > 10 µM (inactive)
SR
  GI50: > 10 µM (inactive)

## CSc1ccc2c(cc1=O)[C@@H](NC(=O)c1ccc([N+](=O)[O-])cc1)CCc1cc(O)c(O)c(O)c1-2
786-0
  GI50: 29.8 µM (inactive)
BT-549
  GI50: 60.3 µM (inactive)
CCRF-CEM
  GI50: 4.58 µM (inactive)
COLO 205
  GI50: 24.7 µM (inactive)
EKVX
  GI50: > 100 µM (inactive)
HCT-15
  GI50: 30.4 µM
HOP-92
  GI50: > 100 µM (inactive)
KM12
  GI50: 17.7 µM (inactive)
LOX IMVI
  GI50: 34.8 µM (inactive)
MDA-MB-435
  GI50: 16.6 µM (inactive)
NCI-H226
  GI50: 46.5 µM (inactive)
OVCAR-4
  GI50: 39.8 µM (inactive)
OVCAR-5
  GI50: > 100 µM (inactive)
OVCAR-8
  GI50: 32.1 µM (inactive)
SK-OV-3
  GI50: > 100 µM (inactive)
SN12C
  GI50: 21.6 µM (inactive)
SNB-19
  GI50: 18.4 µM (inactive)
SNB-75
  GI50: > 100 µM (inactive)
SR
  GI50: 3.99 µM (inactive)

## C=CCOc1cccc(C2(O)c3ccccc3C3=NCCCN32)c1 (stereo not given)
786-0
  GI50: 8.49 µM (inactive)
BT-549
  GI50: > 100 µM (inactive)
CCRF-CEM
  GI50: 15.4 µM (inactive)
COLO 205
  GI50: 15 µM (inactive)
EKVX
  GI50: 3.77 µM (inactive)
HCT-15
  GI50: 20.6 µM
HOP-92
  GI50: 21.8 µM (inactive)
KM12
  GI50: 7.48 µM (inactive)
LOX IMVI
  GI50: 14.5 µM (inactive)
MDA-MB-435
  GI50: 13 µM (inactive)
NCI-H226
  GI50: 3.38 µM (inactive)
OVCAR-4
  GI50: 15.5 µM (inactive)
OVCAR-5
  GI50: 29.7 µM (inactive)
OVCAR-8
  GI50: 14.4 µM (inactive)
SK-OV-3
  GI50: 37.7 µM (inactive)
SN12C
  GI50: 31.1 µM (inactive)
SNB-19
  GI50: 2.45 µM (inactive)
SNB-75
  GI50: 5.06 µM (inactive)
SR
  GI50: 8.81 µM (inactive)

## NCCNCCNc1ccc(NCCNCCN)c2c1C(=O)c1c(O)ccc(O)c1C2=O
786-0
  GI50: > 100 µM (inactive)
BT-549
  GI50: > 100 µM (inactive)
CCRF-CEM
  GI50: 38.9 µM (inactive)
COLO 205
  GI50: > 100 µM (inactive)
EKVX
  GI50: > 100 µM (inactive)
HCT-15
  GI50: > 100 µM
HOP-92
  GI50: > 100 µM (inactive)
KM12
  GI50: > 100 µM (inactive)
LOX IMVI
  GI50: > 100 µM (inactive)
MDA-MB-435
  GI50: > 100 µM (inactive)
NCI-H226
  GI50: > 100 µM (inactive)
OVCAR-4
  GI50: > 100 µM (inactive)
OVCAR-5
  GI50: > 100 µM (inactive)
OVCAR-8
  GI50: > 100 µM (inactive)
SK-OV-3
  GI50: > 100 µM (inactive)
SN12C
  GI50: > 100 µM (inactive)
SNB-19
  GI50: > 100 µM (inactive)
SNB-75
  GI50: > 100 µM (inactive)
SR
  GI50: 2.21 µM (inactive)

## c1ccc2c3c(c(N4CCNCC4)nc2c1)CCCC3
786-0
  GI50: 14.4 µM (inactive)
BT-549
  GI50: 13.9 µM (inactive)
CCRF-CEM
  GI50: 9.98 µM (inactive)
COLO 205
  GI50: 5.75 µM (inactive)
EKVX
  GI50: 7.53 µM (inactive)
HCT-15
  GI50: 15.8 µM
HOP-92
  GI50: 14.2 µM (inactive)
KM12
  GI50: 17.2 µM (inactive)
LOX IMVI
  GI50: 14.2 µM (inactive)
MDA-MB-435
  GI50: 11.4 µM (inactive)
NCI-H226
  GI50: 14.8 µM (inactive)
OVCAR-4
  GI50: 16 µM (inactive)
OVCAR-5
  GI50: 13.7 µM (inactive)
OVCAR-8
  GI50: 15.5 µM (inactive)
SK-OV-3
  GI50: 18.8 µM (inactive)
SN12C
  GI50: 16.3 µM (inactive)
SNB-19
  GI50: 14.6 µM (inactive)
SNB-75
  GI50: 13.9 µM (inactive)
SR
  GI50: 13.2 µM (inactive)
